Test results as given in BindingDB's records for doi:10.1016/j.ejmech.2023.115180 (Damanhour University, 2023).

Test: Inhibition of LOX (unknown origin) using arachidonic/linoleic acid as substrate preincubated for 5 mins followed by substrate addition measured after 10 mins by absorbance based assay

IC50 [nM]	Structure (SMILES)
2400	Nc1c(C(=O)N/N=C/c2ccccc2)cnn1-c1ccc(S(N)(=O)=O)cc1
2500	Nc1c(C(=O)N/N=C/c2cccs2)cnn1-c1ccc(S(N)(=O)=O)cc1
